Experimental data as given in ChEMBL document CHEMBL1122862, “Synthesis and antibacterial activity of 2,2'-dithiobis(benzamide) derivatives against Mycobacterium species” (1985).
Converted amounts (≈) assume the structure as drawn.

Key:
Format in all cases: functional
[1] = test system: Mycobacterium tuberculosis; experiment: Antibacterial activity against Mycobacterium tuberculosis H37Rv.
[2] = test system: Mycobacterium intracellulare; experiment: Antibacterial activity against Mycobacterium intracellular.
Mycobacterium kansasii = experiment: Antibacterial activity against Mycobacterium kansasii

Row | Structure (SMILES) | MIC [1] | MIC [2] | MIC (Mycobacterium kansasii)
1 | CC(O)CNC(=O)c1ccc(SSc2ccc(C(=O)NCC(C)O)cc2)cc1 (stereo not given) | 100 µg/mL (≈ 238 µM) | > 100 µg/mL | > 100 µg/mL
2 | CCCCCCCCCCCCCCCCCCCC(=O)OCCCNC(=O)c1ccccc1SSc1ccccc1C(=O)NCCCOC(=O)CCCCCCCCCCCCCCCCCCC | > 100 µg/mL | > 100 µg/mL | > 100 µg/mL
3 | O=C(Nc1ccc2ccccc2c1)c1ccccc1SSc1ccccc1C(=O)Nc1ccc2ccccc2c1 | 1.56 µg/mL (≈ 2.8 µM) | 6.25 µg/mL (≈ 11.2 µM) | 6.25 µg/mL (≈ 11.2 µM)
4 | O=C(NCC(O)c1ccc(O)c(O)c1)c1ccccc1SSc1ccccc1C(=O)NCC(O)c1ccc(O)c(O)c1 (stereo not given) | 100 µg/mL (≈ 164 µM) | > 100 µg/mL | > 100 µg/mL
5 | CC(O)Cn1sc2ccccc2c1=O (stereo not given) | 12.5 µg/mL (≈ 59.7 µM) | 12.5 µg/mL (≈ 59.7 µM) | 25 µg/mL (≈ 119 µM)
6 | O=C(NCCO)c1ccccc1SSc1ccccc1C(=O)NCCO | 6.25 µg/mL (≈ 15.9 µM) | 25 µg/mL (≈ 63.7 µM) | 25 µg/mL (≈ 63.7 µM)
7 | CCCCCCCCCCCC(=O)OCCCNC(=O)c1ccccc1SSc1ccccc1C(=O)NCCCOC(=O)CCCCCCCCCCC | 0.78 µg/mL (≈ 0.993 µM) | > 100 µg/mL | 12.5 µg/mL (≈ 15.9 µM)
8 | CCCCCCCCCCCCCCCC(=O)OC(C)CNC(=O)c1ccccc1SSc1ccccc1C(=O)NCC(C)OC(=O)CCCCCCCCCCCCCCC (stereo not given) | 25 µg/mL (≈ 27.9 µM) | > 100 µg/mL | > 100 µg/mL
9 | CC(C)(CO)NC(=O)c1ccccc1SSc1ccccc1C(=O)NC(C)(C)CO | 12.5 µg/mL (≈ 27.9 µM) | 12.5 µg/mL (≈ 27.9 µM) | 12.5 µg/mL (≈ 27.9 µM)
10 | CCOC(=O)c1ccc(NC(=O)c2ccccc2SSc2ccccc2C(=O)Nc2ccc(C(=O)OCC)cc2)cc1 | 3.13 µg/mL (≈ 5.21 µM) | 25 µg/mL (≈ 41.6 µM) | 25 µg/mL (≈ 41.6 µM)
11 | O=C1c2ccccc2S(=O)(=O)N1CO | > 100 µg/mL | 100 µg/mL (≈ 469 µM) | > 100 µg/mL
12 | CCOCCCNC(=O)c1ccccc1SSc1ccccc1C(=O)NCCCOCC | 1.56 µg/mL (≈ 3.27 µM) | 12.5 µg/mL (≈ 26.2 µM) | 12.5 µg/mL (≈ 26.2 µM)
13 | O=C(c1ccccc1SSc1ccccc1C(=O)n1nnc2ccccc21)n1nnc2ccccc21 | > 100 µg/mL | > 100 µg/mL | > 100 µg/mL
14 | CCNC(=O)OCCNC(=O)c1ccccc1SSc1ccccc1C(=O)NCCOC(=O)NCC | 25 µg/mL (≈ 46.8 µM) | 25 µg/mL (≈ 46.8 µM) | 25 µg/mL (≈ 46.8 µM)
15 | NC(=O)c1ccccc1SSc1ccccc1C(N)=O | 12.5 µg/mL (≈ 41.1 µM) | 25 µg/mL (≈ 82.1 µM) | 25 µg/mL (≈ 82.1 µM)
16 | CCCCc1ccc(NC(=O)c2ccccc2SSc2ccccc2C(=O)Nc2ccc(CCCC)cc2)cc1 | 0.78 µg/mL (≈ 1.37 µM) | 12.5 µg/mL (≈ 22 µM) | 12.5 µg/mL (≈ 22 µM)
17 | CCCCCCCCCCCCCCCC(=O)OCCCNC(=O)c1ccccc1SSc1ccccc1C(=O)NCCCOC(=O)CCCCCCCCCCCCCCC | 50 µg/mL (≈ 55.7 µM) | > 100 µg/mL | 100 µg/mL (≈ 111 µM)
18 | O=C(Nc1ccccc1Cl)c1ccccc1SSc1ccccc1C(=O)Nc1ccccc1Cl | 25 µg/mL (≈ 47.6 µM) | > 100 µg/mL | 100 µg/mL (≈ 190 µM)
19 | O=C(Nc1ccc(S(=O)(=O)Nc2nc3ccccc3s2)cc1)c1ccccc1SSc1ccccc1C(=O)Nc1ccc(S(=O)(=O)Nc2nc3ccccc3s2)cc1 | 100 µg/mL (≈ 113 µM) | 100 µg/mL (≈ 113 µM) | 50 µg/mL (≈ 56.7 µM)
20 | O=C(c1ccccc1SSc1ccccc1C(=O)N1CCN(c2ccccc2)CC1)N1CCN(c2ccccc2)CC1 | 12.5 µg/mL (≈ 21 µM) | 25 µg/mL (≈ 42 µM) | 50 µg/mL (≈ 84.1 µM)
21 | O=C(NCCCCO)c1ccccc1SSc1ccccc1C(=O)NCCCCO | 6.25 µg/mL (≈ 13.9 µM) | 25 µg/mL (≈ 55.7 µM) | 25 µg/mL (≈ 55.7 µM)
22 | O=C(NCO)c1ccccc1SSc1ccccc1C(=O)NCO | 6.25 µg/mL (≈ 17.1 µM) | 25 µg/mL (≈ 68.6 µM) | 25 µg/mL (≈ 68.6 µM)
23 | O=C(Nc1cccc(Cl)c1)c1ccccc1SSc1ccccc1C(=O)Nc1cccc(Cl)c1 | 3.13 µg/mL (≈ 5.96 µM) | 25 µg/mL (≈ 47.6 µM) | 12.5 µg/mL (≈ 23.8 µM)
24 | CN1CCN(C(=O)c2ccccc2SSc2ccccc2C(=O)N2CCN(C)CC2)CC1.Cl.Cl | 100 µg/mL | > 100 µg/mL | > 100 µg/mL
25 | CCCCC(CC)CNC(=O)c1ccccc1SSc1ccccc1C(=O)NCC(CC)CCCC (stereo not given) | 1.56 µg/mL (≈ 2.95 µM) | 50 µg/mL (≈ 94.5 µM) | 3.13 µg/mL (≈ 5.92 µM)

Row | Structure (SMILES) | MIC [1] | MIC [2] | MIC (Mycobacterium kansasii)
26 | CC(=O)OCCCNC(=O)c1ccccc1SSc1ccccc1C(=O)NCCCOC(C)=O | 12.5 µg/mL (≈ 24.8 µM) | 25 µg/mL (≈ 49.5 µM) | 25 µg/mL (≈ 49.5 µM)
27 | O=C(O)Cc1ccc(NC(=O)c2ccccc2SSc2ccccc2C(=O)Nc2ccc(CC(=O)O)cc2)cc1 | 100 µg/mL (≈ 175 µM) | 100 µg/mL (≈ 175 µM) | 100 µg/mL (≈ 175 µM)
28 | COCCNC(=O)c1ccccc1SSc1ccccc1C(=O)NCCOC | 6.25 µg/mL (≈ 14.9 µM) | 12.5 µg/mL (≈ 29.7 µM) | 12.5 µg/mL (≈ 29.7 µM)
29 | CC(CCc1ccccc1)NC(=O)c1ccccc1SSc1ccccc1C(=O)NC(C)CCc1ccccc1 (stereo not given) | 100 µg/mL (≈ 176 µM) | > 100 µg/mL | > 100 µg/mL
30 | CO[C@H]1/C=C/O[C@@]2(C)Oc3c(C)c(O)c4c(O)c(c(/C=N/N5CCN(C)CC5)c(O)c4c3C2=O)NC(=O)/C(C)=C\C=C\[C@H](C)[C@H](O)[C@@H](C)[C@@H](O)[C@@H](C)[C@H](OC(C)=O)[C@@H]1C [RIFAMPIN] | 0.05 µg/mL (≈ 0.0608 µM) | 0.2 µg/mL (≈ 0.243 µM) | 0.05 µg/mL (≈ 0.0608 µM)
31 | CCC(CO)(CO)NC(=O)c1ccccc1SSc1ccccc1C(=O)NC(CC)(CO)CO | 25 µg/mL (≈ 49.1 µM) | 100 µg/mL (≈ 197 µM) | 25 µg/mL (≈ 49.1 µM)
32 | CCCCCCCCCCCCNC(=O)c1ccccc1SSc1ccccc1C(=O)NCCCCCCCCCCCC | 3.13 µg/mL (≈ 4.88 µM) | 50 µg/mL (≈ 78 µM) | 25 µg/mL (≈ 39 µM)
33 | O=C(NCCO)c1ccc(Cl)cc1SSc1ccc(Cl)cc1C(=O)NCCO | 6.25 µg/mL (≈ 13.5 µM) | 50 µg/mL (≈ 108 µM) | 25 µg/mL (≈ 54.2 µM)
34 | CCCCCCCCCC(=O)OCCCNC(=O)c1ccccc1SSc1ccccc1C(=O)NCCCOC(=O)CCCCCCCCC | 0.39 µg/mL (≈ 0.535 µM) | 12.5 µg/mL (≈ 17.1 µM) | 0.39 µg/mL (≈ 0.535 µM)
35 | CC(O)CNC(=O)c1ccccc1SSc1ccccc1C(=O)NCC(C)O (stereo not given) | 1.56 µg/mL (≈ 3.71 µM) | 25 µg/mL (≈ 59.4 µM) | 25 µg/mL (≈ 59.4 µM)
36 | NC[C@H]1O[C@H](O[C@H]2[C@H](O)[C@@H](O[C@H]3O[C@H](CO)[C@@H](O)[C@H](N)[C@H]3O)[C@H](N)C[C@@H]2N)[C@H](O)[C@@H](O)[C@@H]1O [KANAMYCIN] | 3.13 µg/mL (≈ 6.46 µM) | 6.25 µg/mL (≈ 12.9 µM) | 25 µg/mL (≈ 51.6 µM)
37 | Cl.Cl.O=C(c1ccccc1SSc1ccccc1C(=O)N1CCN(C(c2ccccc2)c2ccccc2)CC1)N1CCN(C(c2ccccc2)c2ccccc2)CC1 | > 100 µg/mL | > 100 µg/mL | > 100 µg/mL
38 | CCc1cc(CC)cc(NC(=O)c2ccccc2SSc2ccccc2C(=O)Nc2cc(CC)cc(CC)c2)c1 | > 100 µg/mL | > 100 µg/mL | > 100 µg/mL
39 | CCCCCCCC(=O)OCCCNC(=O)c1ccccc1SSc1ccccc1C(=O)NCCCOC(=O)CCCCCCC | 0.39 µg/mL (≈ 0.58 µM) | 12.5 µg/mL (≈ 18.6 µM) | 0.78 µg/mL (≈ 1.16 µM)
40 | CCOC(CN1CCN(C(=O)c2ccccc2SSc2ccccc2C(=O)N2CCN(CC(OCC)c3ccccc3)CC2)CC1)c1ccccc1 (stereo not given) | > 100 µg/mL | > 100 µg/mL | > 100 µg/mL
41 | COC(CNC(=O)c1ccccc1SSc1ccccc1C(=O)NCC(OC)OC)OC | 3.13 µg/mL (≈ 6.51 µM) | 12.5 µg/mL (≈ 26 µM) | 12.5 µg/mL (≈ 26 µM)
42 | O=C(Nc1ccc(Cl)c2ccccc12)c1ccccc1SSc1ccccc1C(=O)Nc1ccc(Cl)c2ccccc12 | 12.5 µg/mL (≈ 20 µM) | > 100 µg/mL | 50 µg/mL (≈ 79.9 µM)
43 | CCCCCCCCCCNC(=O)c1ccccc1SSc1ccccc1C(=O)NCCCCCCCCCC | 12.5 µg/mL (≈ 21.4 µM) | 25 µg/mL (≈ 42.7 µM) | 12.5 µg/mL (≈ 21.4 µM)
44 | O=C(Nc1cccc([N+](=O)[O-])c1)c1ccccc1SSc1ccccc1C(=O)Nc1cccc([N+](=O)[O-])c1 | 100 µg/mL (≈ 183 µM) | > 100 µg/mL | > 100 µg/mL
45 | O=C(c1ccccc1SSc1ccccc1C(=O)N(c1ccccc1)c1ccccc1)N(c1ccccc1)c1ccccc1 | > 100 µg/mL | > 100 µg/mL | > 100 µg/mL
46 | CCCCCCCCCCCC(=O)OC(C)CNC(=O)c1ccccc1SSc1ccccc1C(=O)NCC(C)OC(=O)CCCCCCCCCCC (stereo not given) | 3.13 µg/mL (≈ 3.99 µM) | 100 µg/mL (≈ 127 µM) | 50 µg/mL (≈ 63.7 µM)
47 | O=C(c1ccccc1SSc1ccccc1C(=O)N1CCN(C/C=C/c2ccccc2)CC1)N1CCN(C/C=C/c2ccccc2)CC1 | 100 µg/mL (≈ 148 µM) | > 100 µg/mL | > 100 µg/mL
48 | CCOc1ccc2nc(NC(=O)c3ccccc3SSc3ccccc3C(=O)Nc3nc4ccc(OCC)cc4s3)sc2c1 | > 100 µg/mL | > 100 µg/mL | > 100 µg/mL
49 | O=C(NCc1ccco1)c1ccccc1SSc1ccccc1C(=O)NCc1ccco1 | 25 µg/mL (≈ 53.8 µM) | 25 µg/mL (≈ 53.8 µM) | 25 µg/mL (≈ 53.8 µM)
50 | O=c1c2ccccc2sn1CCO | 12.5 µg/mL (≈ 64 µM) | 12.5 µg/mL (≈ 64 µM) | 25 µg/mL (≈ 128 µM)
